ChEMBL document CHEMBL1201862, “PubChem BioAssay data set” (2004)
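Cultured in 96-well plates, cells were exposed to test compound for 48 hours across five concentrations. At the GI50, growth is halved.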 Active and inactive are the calls of the source. No stated cut-off is given here; in the data, active = GI50 up to about 1.1 µM and inactive = higher.

Key:
Test in all cases: inhibition of tumour cell growth, NCI panel, 48 h
[1] = system: 786-0
[2] = system: CCRF-CEM
[3] = system: HL-60
[4] = system: HOP-62
[5] = system: IGROV-1
[6] = system: K562
[7] = system: Malme-3M
[8] = system: NCI-H23
[9] = system: NCI/ADR-RES
[10] = system: OVCAR-3
[11] = system: OVCAR-8
[12] = system: RPMI-8226
[13] = system: RXF 393
[14] = system: SF-268
[15] = system: SK-MEL-5
[16] = system: SN12C
[17] = system: SNB-19
[18] = system: SNB-75
[19] = system: SR
[20] = system: UACC-62

## O=C1C(Cl)=C(N2CCN(c3ccccn3)CC2)C(=O)c2ncccc21
[1]
  GI50: 1.63 µM (inactive)
[2]
  GI50: 0.745 µM (active)
[3]
  GI50: 0.668 µM (active)
[4]
  GI50: 11.9 µM (inactive)
[5]
  GI50: 2.64 µM (inactive)
[6]
  GI50: 1.33 µM (inactive)
[7]
  GI50: 1.75 µM (inactive)
[8]
  GI50: 1.89 µM (inactive)
[9]
  GI50: 2.33 µM (inactive)
[10]
  GI50: 1.69 µM (inactive)
[11]
  GI50: 1.32 µM (inactive)
[12]
  GI50: 2 µM (inactive)
[13]
  GI50: 2.17 µM (inactive)
[14]
  GI50: 2.74 µM (inactive)
[15]
  GI50: 2 µM (inactive)
[16]
  GI50: 2.61 µM (inactive)
[17]
  GI50: 12.5 µM (inactive)
[18]
  GI50: 6.21 µM (inactive)
[19]
  GI50: 0.757 µM (active)
[20]
  GI50: 2.45 µM (inactive)

## C[C@H](CCc1nc(C#N)c(N)o1)[C@H]1CC[C@H]2[C@@H]3[C@@H](O)CC4C[C@@H](O)CC[C@]4(C)[C@H]3C[C@@H](O)[C@]12C (stereo not given in full)
[1]
  GI50: 19.2 µM (inactive)
[2]
  GI50: 0.498 µM (active)
[3]
  GI50: 3.62 µM (inactive)
[4]
  GI50: 26.5 µM (inactive)
[5]
  GI50: 10.2 µM (inactive)
[6]
  GI50: 23.1 µM (inactive)
[7]
  GI50: 7.38 µM (inactive)
[8]
  GI50: 24 µM (inactive)
[9]
  GI50: > 78.9 µM (inactive)
[10]
  GI50: 17.7 µM (inactive)
[11]
  GI50: 12.9 µM (inactive)
[12]
  GI50: 6.75 µM (inactive)
[13]
  GI50: 16 µM (inactive)
[14]
  GI50: 20.2 µM (inactive)
[15]
  GI50: 18.9 µM (inactive)
[16]
  GI50: 20.6 µM (inactive)
[17]
  GI50: 23.9 µM (inactive)
[18]
  GI50: 10.3 µM (inactive)
[19]
  GI50: 17 µM (inactive)
[20]
  GI50: 10.7 µM (inactive)

## O=C1CC(c2ccco2)C2(C(=O)NC(=O)NC2=O)C(c2ccco2)C1 (stereo not given)
[1]
  GI50: > 75 µM (inactive)
[2]
  GI50: > 75 µM (inactive)
[3]
  GI50: > 75 µM (inactive)
[4]
  GI50: > 75 µM (inactive)
[5]
  GI50: > 75 µM (inactive)
[6]
  GI50: > 75 µM (inactive)
[7]
  GI50: > 75 µM (inactive)
[8]
  GI50: > 75 µM (inactive)
[9]
  GI50: > 75 µM (inactive)
[10]
  GI50: > 75 µM (inactive)
[11]
  GI50: > 75 µM (inactive)
[12]
  GI50: > 75 µM (inactive)
[13]
  GI50: > 75 µM (inactive)
[14]
  GI50: > 75 µM (inactive)
[15]
  GI50: > 75 µM (inactive)
[16]
  GI50: > 75 µM (inactive)
[17]
  GI50: > 75 µM (inactive)
[18]
  GI50: > 75 µM (inactive)
[19]
  GI50: > 75 µM (inactive)
[20]
  GI50: > 75 µM (inactive)

## COc1cc(Cn2c3c(c4cc(O)ccc42)Cc2ccccc2C3=O)cc(OC)c1
[1]
  GI50: 58.3 µM (inactive)
[2]
  GI50: 22.6 µM (inactive)
[3]
  GI50: > 100 µM (inactive)
[4]
  GI50: 60.7 µM (inactive)
[5]
  GI50: 44.8 µM (inactive)
[6]
  GI50: 44.7 µM (inactive)
[7]
  GI50: 42.1 µM (inactive)
[8]
  GI50: > 100 µM (inactive)
[9]
  GI50: 21.3 µM (inactive)
[10]
  GI50: > 100 µM (inactive)
[11]
  GI50: 59.6 µM (inactive)
[12]
  GI50: 5.62 µM (inactive)
[13]
  GI50: > 100 µM (inactive)
[14]
  GI50: > 100 µM (inactive)
[15]
  GI50: 35.7 µM (inactive)
[16]
  GI50: 24.7 µM (inactive)
[17]
  GI50: > 100 µM (inactive)
[18]
  GI50: 15.5 µM (inactive)
[19]
  GI50: 6.46 µM (inactive)
[20]
  GI50: 38.2 µM (inactive)

## CC1(C)C2C=C(CCN3CCOCC3)CC1C2 (stereo not given)
[1]
  GI50: > 100 µM (inactive)
[2]
  GI50: > 100 µM (inactive)
[3]
  GI50: > 100 µM (inactive)
[4]
  GI50: > 100 µM (inactive)
[5]
  GI50: > 100 µM (inactive)
[6]
  GI50: > 100 µM (inactive)
[7]
  GI50: > 100 µM (inactive)
[8]
  GI50: > 100 µM (inactive)
[9]
  GI50: > 100 µM (inactive)
[10]
  GI50: > 100 µM (inactive)
[11]
  GI50: > 100 µM (inactive)
[12]
  GI50: > 100 µM (inactive)
[13]
  GI50: > 100 µM (inactive)
[14]
  GI50: > 100 µM (inactive)
[15]
  GI50: > 100 µM (inactive)
[16]
  GI50: > 100 µM (inactive)
[17]
  GI50: > 100 µM (inactive)
[18]
  GI50: 71.3 µM (inactive)
[19]
  GI50: > 100 µM (inactive)
[20]
  GI50: > 100 µM (inactive)

## C[C@H]1C=C2[C@@H]3CC(C)(C(=O)O)CC[C@]3(C)CC[C@]2(C)[C@]2(C)CC[C@H]3C(C)(C)[C@@H](OC(=O)c4cccc5c(=O)c6ccccc6[nH]c45)CC[C@]3(C)[C@@H]12 (stereo not given in full)
[1]
  GI50: > 100 µM (inactive)
[2]
  GI50: 38 µM (inactive)
[3]
  GI50: 38.4 µM (inactive)
[4]
  GI50: > 100 µM (inactive)
[5]
  GI50: > 100 µM (inactive)
[6]
  GI50: 54.5 µM (inactive)
[7]
  GI50: 66.8 µM (inactive)
[8]
  GI50: 44.3 µM (inactive)
[9]
  GI50: 54.6 µM (inactive)
[10]
  GI50: > 100 µM (inactive)
[11]
  GI50: 41.7 µM (inactive)
[12]
  GI50: 43 µM (inactive)
[13]
  GI50: > 100 µM (inactive)
[14]
  GI50: > 100 µM (inactive)
[15]
  GI50: 34.4 µM (inactive)
[16]
  GI50: > 100 µM (inactive)
[17]
  GI50: > 100 µM (inactive)
[18]
  GI50: > 100 µM (inactive)
[19]
  GI50: 66.8 µM (inactive)
[20]
  GI50: 43.3 µM (inactive)

## CCn1sc2ccccc2c1=O
[1]
  GI50: 2.34 µM (inactive)
[2]
  GI50: 1.87 µM (inactive)
[3]
  GI50: 3.78 µM (inactive)
[4]
  GI50: 14.7 µM (inactive)
[5]
  GI50: 6.73 µM (inactive)
[6]
  GI50: 4.58 µM (inactive)
[7]
  GI50: 15.8 µM (inactive)
[8]
  GI50: 13 µM (inactive)
[9]
  GI50: 18.2 µM (inactive)
[10]
  GI50: 12.9 µM (inactive)
[11]
  GI50: 9.12 µM (inactive)
[12]
  GI50: 4.23 µM (inactive)
[13]
  GI50: 4.81 µM (inactive)
[14]
  GI50: 17.3 µM (inactive)
[15]
  GI50: 9.84 µM (inactive)
[16]
  GI50: 5.32 µM (inactive)
[17]
  GI50: 11.3 µM (inactive)
[18]
  GI50: 13.7 µM (inactive)
[19]
  GI50: 1.95 µM (inactive)
[20]
  GI50: 13.9 µM (inactive)

## COC(=O)c1c(O)ccc2c1c1cc3ccccc3cc1n2Cc1cc(OC)cc(OC)c1
[1]
  GI50: 3.55 µM (inactive)
[2]
  GI50: 1.66 µM (inactive)
[3]
  GI50: 2.92 µM (inactive)
[4]
  GI50: 3.23 µM (inactive)
[5]
  GI50: 0.678 µM (active)
[6]
  GI50: 1.96 µM (inactive)
[7]
  GI50: 1.22 µM (inactive)
[8]
  GI50: 4.53 µM (inactive)
[9]
  GI50: 1.4 µM (inactive)
[10]
  GI50: 0.339 µM (active)
[11]
  GI50: 6.38 µM (inactive)
[12]
  GI50: 1.96 µM (inactive)
[13]
  GI50: 3.96 µM (inactive)
[14]
  GI50: 2.75 µM (inactive)
[15]
  GI50: 1.34 µM (inactive)
[16]
  GI50: 7.85 µM (inactive)
[17]
  GI50: 5.82 µM (inactive)
[18]
  GI50: 2.51 µM (inactive)
[19]
  GI50: 1.04 µM (active)
[20]
  GI50: 3.13 µM (inactive)

## O=C(O)C1=NN(c2ccc(S(=O)(=O)O)cc2)C2(C1)SCC(=O)N2c1nc2ccccc2s1 (stereo not given)
[1]
  GI50: > 100 µM (inactive)
[2]
  GI50: > 100 µM (inactive)
[3]
  GI50: > 100 µM (inactive)
[4]
  GI50: > 100 µM (inactive)
[5]
  GI50: > 100 µM (inactive)
[6]
  GI50: > 100 µM (inactive)
[7]
  GI50: > 100 µM (inactive)
[8]
  GI50: > 100 µM (inactive)
[9]
  GI50: > 100 µM (inactive)
[10]
  GI50: > 100 µM (inactive)
[11]
  GI50: > 100 µM (inactive)
[12]
  GI50: > 100 µM (inactive)
[13]
  GI50: > 100 µM (inactive)
[14]
  GI50: > 100 µM (inactive)
[15]
  GI50: > 100 µM (inactive)
[16]
  GI50: > 100 µM (inactive)
[17]
  GI50: > 100 µM (inactive)
[18]
  GI50: > 100 µM (inactive)
[19]
  GI50: > 100 µM (inactive)
[20]
  GI50: > 100 µM (inactive)

## Cc1cc(=O)oc2cc(OC(=O)N(CCCl)CCCl)ccc12
[1]
  GI50: > 100 µM (inactive)
[2]
  GI50: 90.4 µM (inactive)
[3]
  GI50: > 100 µM (inactive)
[4]
  GI50: > 100 µM (inactive)
[5]
  GI50: 94.4 µM (inactive)
[6]
  GI50: 68.5 µM (inactive)
[7]
  GI50: > 100 µM (inactive)
[8]
  GI50: > 100 µM (inactive)
[9]
  GI50: 99.1 µM (inactive)
[10]
  GI50: > 100 µM (inactive)
[11]
  GI50: > 100 µM (inactive)
[12]
  GI50: 61.4 µM (inactive)
[13]
  GI50: > 100 µM (inactive)
[14]
  GI50: > 100 µM (inactive)
[15]
  GI50: > 100 µM (inactive)
[16]
  GI50: > 100 µM (inactive)
[17]
  GI50: > 100 µM (inactive)
[18]
  GI50: 50.7 µM (inactive)
[19]
  GI50: 63.2 µM (inactive)
[20]
  GI50: 29.4 µM (inactive)
